Laboratory results from ChEMBL document CHEMBL4431331, “Design and evaluation of 1,7-naphthyridones as novel KDM5 inhibitors” (Bioorg Med Chem Lett, 2016).
Blank lines part the entries; values can stand above or below the molecule they belong to. Activity calls are given as the source filed them. The calls are words filed in the database; no cut-off is given here.

Tests used:
[1] = biological target: T1, Lysine-specific demethylase 5A (Homo sapiens, UniProt P29375); test: Inhibition of full length human KDM5A using biotinylated H2NART(KMe3)QTARKSTGGKAPRKQLA-NTPEG-biotin as substrate after 30 to 40 mins using 1 uM of 2-OG as co-substrate by TR-FRET assay
T1 sequence (P29375 whole entry): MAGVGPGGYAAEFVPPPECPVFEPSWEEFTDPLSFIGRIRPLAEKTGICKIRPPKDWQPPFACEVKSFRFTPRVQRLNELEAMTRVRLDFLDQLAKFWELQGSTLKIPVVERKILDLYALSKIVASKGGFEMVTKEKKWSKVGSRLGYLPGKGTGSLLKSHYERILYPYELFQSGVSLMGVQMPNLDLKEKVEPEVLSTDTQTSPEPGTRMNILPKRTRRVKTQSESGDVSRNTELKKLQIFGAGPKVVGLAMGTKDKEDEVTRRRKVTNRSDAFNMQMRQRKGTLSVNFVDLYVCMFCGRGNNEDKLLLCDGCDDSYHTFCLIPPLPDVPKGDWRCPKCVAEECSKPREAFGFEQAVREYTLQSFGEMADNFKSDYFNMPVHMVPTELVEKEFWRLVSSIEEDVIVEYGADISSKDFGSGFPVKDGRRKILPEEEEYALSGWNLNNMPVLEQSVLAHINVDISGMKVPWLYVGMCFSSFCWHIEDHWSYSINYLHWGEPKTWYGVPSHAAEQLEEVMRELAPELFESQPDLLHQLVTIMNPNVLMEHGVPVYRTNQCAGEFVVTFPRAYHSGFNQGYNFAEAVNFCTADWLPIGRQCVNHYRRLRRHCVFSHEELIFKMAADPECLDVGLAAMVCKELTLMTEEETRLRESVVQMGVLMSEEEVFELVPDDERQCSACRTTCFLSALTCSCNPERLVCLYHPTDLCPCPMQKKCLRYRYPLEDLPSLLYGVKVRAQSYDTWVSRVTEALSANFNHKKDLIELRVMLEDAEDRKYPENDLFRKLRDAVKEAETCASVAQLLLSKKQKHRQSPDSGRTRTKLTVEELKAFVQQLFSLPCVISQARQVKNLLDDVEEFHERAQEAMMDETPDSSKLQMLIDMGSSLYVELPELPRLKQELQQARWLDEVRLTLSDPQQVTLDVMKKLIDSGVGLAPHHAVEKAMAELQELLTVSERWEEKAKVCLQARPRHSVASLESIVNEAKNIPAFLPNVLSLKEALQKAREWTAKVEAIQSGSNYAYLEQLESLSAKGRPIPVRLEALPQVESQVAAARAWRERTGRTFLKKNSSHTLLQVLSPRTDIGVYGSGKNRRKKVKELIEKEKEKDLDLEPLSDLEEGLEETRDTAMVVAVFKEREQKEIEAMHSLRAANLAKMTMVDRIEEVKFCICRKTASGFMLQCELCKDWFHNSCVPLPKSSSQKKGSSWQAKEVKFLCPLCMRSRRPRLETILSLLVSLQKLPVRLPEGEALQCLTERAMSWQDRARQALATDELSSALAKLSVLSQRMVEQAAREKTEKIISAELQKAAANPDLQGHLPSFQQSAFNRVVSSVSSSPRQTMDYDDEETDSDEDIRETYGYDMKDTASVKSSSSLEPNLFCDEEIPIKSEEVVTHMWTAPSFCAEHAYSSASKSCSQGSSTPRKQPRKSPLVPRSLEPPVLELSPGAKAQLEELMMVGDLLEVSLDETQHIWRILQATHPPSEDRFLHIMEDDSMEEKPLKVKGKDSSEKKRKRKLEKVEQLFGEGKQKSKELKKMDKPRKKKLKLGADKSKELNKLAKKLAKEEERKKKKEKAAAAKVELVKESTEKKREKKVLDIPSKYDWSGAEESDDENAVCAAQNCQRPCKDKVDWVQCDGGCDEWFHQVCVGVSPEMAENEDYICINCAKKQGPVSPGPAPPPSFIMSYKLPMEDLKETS

[2] = Dissociation constant, pKa of the compound; format: physicochemical
[3] = biological target: T1, Lysine-specific demethylase 5A; test: Inhibition of KDM5A in human PC9 cells assessed as increase in H3K4me3 levels upto 30 uM after 4 days by HTRF assay; format: cell-based
[4] = Apparent permeability from apical to basolateral side in MDCK cells; format: ADME, cell-based, Canis lupus familiaris; details: dog
[5] = Plasma protein binding in human; format: ADME, cell-free; details: read-out: PPB (converted)
[6] = Hepatic clearance in human liver microsomes; format: ADME, Microsome
[7] = biological target: Lysine-specific demethylase 5B (Homo sapiens, UniProt Q9UGL1); test: Inhibition of full length human KDM5B using biotinylated H2NART(KMe3)QTARKSTGGKAPRKQLA-NTPEG-biotin as substrate after 30 to 40 mins using 2 uM of 2-OG as co-substrate by TR-FRET assay
Chain of Lysine-specific demethylase 5B (Q9UGL1 whole entry): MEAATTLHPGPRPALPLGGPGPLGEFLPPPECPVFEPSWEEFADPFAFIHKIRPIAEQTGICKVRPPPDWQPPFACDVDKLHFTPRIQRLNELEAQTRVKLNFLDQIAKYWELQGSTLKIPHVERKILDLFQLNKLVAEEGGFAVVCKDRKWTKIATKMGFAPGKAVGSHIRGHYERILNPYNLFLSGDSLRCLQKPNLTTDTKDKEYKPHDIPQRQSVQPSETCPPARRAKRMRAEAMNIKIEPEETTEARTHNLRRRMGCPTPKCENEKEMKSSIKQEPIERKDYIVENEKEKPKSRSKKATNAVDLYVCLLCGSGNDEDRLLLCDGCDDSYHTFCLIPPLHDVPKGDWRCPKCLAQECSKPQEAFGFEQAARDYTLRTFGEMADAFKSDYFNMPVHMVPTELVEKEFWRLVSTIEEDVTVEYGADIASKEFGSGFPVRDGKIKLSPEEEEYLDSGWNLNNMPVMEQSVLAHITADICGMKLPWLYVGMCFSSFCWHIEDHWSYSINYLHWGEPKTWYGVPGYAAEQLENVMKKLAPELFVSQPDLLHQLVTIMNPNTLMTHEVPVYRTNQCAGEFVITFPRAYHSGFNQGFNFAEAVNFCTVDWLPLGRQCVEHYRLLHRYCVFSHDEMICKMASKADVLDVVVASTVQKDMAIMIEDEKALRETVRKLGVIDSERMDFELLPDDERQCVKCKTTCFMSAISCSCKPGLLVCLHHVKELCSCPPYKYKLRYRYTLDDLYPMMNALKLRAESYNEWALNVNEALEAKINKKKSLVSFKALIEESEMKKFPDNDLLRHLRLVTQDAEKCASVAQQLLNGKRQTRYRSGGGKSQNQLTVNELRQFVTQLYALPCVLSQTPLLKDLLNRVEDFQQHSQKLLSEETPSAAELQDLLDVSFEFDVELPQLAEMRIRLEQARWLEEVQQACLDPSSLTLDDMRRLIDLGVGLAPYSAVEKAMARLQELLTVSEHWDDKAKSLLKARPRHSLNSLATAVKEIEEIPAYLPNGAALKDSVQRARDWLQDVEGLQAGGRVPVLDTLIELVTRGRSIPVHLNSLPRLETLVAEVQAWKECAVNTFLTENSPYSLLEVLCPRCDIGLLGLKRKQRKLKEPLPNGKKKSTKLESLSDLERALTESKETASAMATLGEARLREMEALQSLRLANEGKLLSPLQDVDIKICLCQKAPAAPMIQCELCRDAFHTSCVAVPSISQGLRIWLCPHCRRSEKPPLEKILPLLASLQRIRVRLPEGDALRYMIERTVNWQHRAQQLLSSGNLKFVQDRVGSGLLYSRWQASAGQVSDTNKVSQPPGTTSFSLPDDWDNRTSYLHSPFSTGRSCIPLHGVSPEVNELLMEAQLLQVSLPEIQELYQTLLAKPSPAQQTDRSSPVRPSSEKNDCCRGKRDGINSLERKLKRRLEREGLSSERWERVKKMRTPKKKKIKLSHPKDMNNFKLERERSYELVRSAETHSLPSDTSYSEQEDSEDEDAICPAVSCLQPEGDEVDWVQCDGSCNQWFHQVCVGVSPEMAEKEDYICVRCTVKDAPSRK

[8] = biological target: Lysine-specific demethylase 5C (Homo sapiens, UniProt P41229); test: Inhibition of full length human KDM5C using biotinylated H2NART(KMe3)QTARKSTGGKAPRKQLA-NTPEG-biotin as substrate after 30 to 40 mins using 1 uM of 2-OG as co-substrate by TR-FRET assay
Chain of Lysine-specific demethylase 5C (P41229 whole entry): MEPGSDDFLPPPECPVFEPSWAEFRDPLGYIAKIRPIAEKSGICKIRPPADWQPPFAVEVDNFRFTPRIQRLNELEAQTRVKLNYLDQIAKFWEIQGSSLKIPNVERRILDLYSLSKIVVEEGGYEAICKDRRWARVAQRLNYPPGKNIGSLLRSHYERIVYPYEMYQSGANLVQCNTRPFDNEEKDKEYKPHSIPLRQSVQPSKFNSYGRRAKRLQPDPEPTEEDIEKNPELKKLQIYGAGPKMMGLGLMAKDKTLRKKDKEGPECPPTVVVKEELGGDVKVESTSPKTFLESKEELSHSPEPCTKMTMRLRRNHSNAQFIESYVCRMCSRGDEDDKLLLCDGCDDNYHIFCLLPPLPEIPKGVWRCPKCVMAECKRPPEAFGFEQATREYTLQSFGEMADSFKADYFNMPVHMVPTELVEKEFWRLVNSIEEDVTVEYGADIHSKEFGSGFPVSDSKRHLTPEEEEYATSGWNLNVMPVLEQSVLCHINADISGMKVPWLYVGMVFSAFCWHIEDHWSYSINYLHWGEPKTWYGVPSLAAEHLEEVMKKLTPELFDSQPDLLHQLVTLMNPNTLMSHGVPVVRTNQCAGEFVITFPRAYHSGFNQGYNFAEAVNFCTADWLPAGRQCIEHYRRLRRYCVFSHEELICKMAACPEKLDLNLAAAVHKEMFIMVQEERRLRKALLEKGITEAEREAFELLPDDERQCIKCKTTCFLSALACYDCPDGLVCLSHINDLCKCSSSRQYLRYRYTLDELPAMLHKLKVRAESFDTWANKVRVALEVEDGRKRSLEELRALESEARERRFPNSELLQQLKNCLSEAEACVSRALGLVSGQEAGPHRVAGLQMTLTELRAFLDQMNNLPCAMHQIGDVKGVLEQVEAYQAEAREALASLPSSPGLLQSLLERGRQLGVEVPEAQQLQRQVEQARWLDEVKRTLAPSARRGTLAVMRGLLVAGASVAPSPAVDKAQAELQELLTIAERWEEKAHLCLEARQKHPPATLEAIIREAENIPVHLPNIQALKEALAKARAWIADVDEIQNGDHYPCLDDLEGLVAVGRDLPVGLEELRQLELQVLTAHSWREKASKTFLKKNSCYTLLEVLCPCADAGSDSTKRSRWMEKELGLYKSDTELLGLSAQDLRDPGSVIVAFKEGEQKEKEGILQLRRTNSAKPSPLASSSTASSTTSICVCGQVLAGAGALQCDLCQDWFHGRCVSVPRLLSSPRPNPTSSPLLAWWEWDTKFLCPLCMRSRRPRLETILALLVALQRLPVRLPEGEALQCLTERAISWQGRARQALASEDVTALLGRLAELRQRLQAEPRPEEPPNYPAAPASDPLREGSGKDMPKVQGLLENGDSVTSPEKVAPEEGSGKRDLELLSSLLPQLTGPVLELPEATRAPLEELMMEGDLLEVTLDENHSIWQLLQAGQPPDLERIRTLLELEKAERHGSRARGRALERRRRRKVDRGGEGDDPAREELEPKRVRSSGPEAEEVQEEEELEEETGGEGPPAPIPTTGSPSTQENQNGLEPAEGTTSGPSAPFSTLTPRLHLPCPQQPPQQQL

[9] = biological target: T2, Lysine-specific demethylase 4C (Homo sapiens, UniProt Q9H3R0); test: Inhibition of full length human KDM4C using biotinylated H2N-ARTKQTAR(KMe3)STGGKAPRKQLA-NTPEGBiot as substrate after 30 mins using 3 uM of 2-OG as co-substrate by TR-FRET assay
T2 sequence (Q9H3R0 whole entry): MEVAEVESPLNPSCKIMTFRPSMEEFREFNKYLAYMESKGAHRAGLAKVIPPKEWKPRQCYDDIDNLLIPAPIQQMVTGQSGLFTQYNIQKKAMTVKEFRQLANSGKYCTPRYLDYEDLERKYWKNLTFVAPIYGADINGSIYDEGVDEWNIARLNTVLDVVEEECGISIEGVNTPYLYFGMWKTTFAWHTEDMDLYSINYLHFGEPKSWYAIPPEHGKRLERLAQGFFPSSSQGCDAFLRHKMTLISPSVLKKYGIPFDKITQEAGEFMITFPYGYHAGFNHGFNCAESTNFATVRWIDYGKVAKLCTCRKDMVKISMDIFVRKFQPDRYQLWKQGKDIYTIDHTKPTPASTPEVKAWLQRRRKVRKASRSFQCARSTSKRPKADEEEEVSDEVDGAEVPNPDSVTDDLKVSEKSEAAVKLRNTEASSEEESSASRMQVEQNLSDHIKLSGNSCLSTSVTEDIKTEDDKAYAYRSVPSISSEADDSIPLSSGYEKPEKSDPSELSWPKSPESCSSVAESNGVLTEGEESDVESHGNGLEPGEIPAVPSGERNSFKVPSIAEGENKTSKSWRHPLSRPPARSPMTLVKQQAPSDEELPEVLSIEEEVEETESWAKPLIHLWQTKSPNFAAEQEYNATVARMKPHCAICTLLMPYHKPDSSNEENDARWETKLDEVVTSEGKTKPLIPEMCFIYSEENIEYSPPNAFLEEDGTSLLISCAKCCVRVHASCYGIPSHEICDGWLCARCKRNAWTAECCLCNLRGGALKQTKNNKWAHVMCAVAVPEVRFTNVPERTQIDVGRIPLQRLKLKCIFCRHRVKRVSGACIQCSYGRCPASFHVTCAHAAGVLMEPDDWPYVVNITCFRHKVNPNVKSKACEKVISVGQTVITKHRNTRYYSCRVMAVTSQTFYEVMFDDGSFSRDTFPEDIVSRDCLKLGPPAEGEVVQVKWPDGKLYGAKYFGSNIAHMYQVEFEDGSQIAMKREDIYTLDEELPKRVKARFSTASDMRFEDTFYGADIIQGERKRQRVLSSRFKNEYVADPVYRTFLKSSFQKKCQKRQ

[10] = biological target: T3, Lysine-specific demethylase 2B (Homo sapiens, UniProt Q8NHM5); test: Inhibition of full length human KDM2B using biotinylated H2N-RKSAPATGGV(KMe2)KPHRYRPGTV-NTPEGBiot as substrate after 2 hrs using 0.3 uM of 2-OG as co-substrate by TR-FRET assay
T3 sequence (Q8NHM5 whole entry): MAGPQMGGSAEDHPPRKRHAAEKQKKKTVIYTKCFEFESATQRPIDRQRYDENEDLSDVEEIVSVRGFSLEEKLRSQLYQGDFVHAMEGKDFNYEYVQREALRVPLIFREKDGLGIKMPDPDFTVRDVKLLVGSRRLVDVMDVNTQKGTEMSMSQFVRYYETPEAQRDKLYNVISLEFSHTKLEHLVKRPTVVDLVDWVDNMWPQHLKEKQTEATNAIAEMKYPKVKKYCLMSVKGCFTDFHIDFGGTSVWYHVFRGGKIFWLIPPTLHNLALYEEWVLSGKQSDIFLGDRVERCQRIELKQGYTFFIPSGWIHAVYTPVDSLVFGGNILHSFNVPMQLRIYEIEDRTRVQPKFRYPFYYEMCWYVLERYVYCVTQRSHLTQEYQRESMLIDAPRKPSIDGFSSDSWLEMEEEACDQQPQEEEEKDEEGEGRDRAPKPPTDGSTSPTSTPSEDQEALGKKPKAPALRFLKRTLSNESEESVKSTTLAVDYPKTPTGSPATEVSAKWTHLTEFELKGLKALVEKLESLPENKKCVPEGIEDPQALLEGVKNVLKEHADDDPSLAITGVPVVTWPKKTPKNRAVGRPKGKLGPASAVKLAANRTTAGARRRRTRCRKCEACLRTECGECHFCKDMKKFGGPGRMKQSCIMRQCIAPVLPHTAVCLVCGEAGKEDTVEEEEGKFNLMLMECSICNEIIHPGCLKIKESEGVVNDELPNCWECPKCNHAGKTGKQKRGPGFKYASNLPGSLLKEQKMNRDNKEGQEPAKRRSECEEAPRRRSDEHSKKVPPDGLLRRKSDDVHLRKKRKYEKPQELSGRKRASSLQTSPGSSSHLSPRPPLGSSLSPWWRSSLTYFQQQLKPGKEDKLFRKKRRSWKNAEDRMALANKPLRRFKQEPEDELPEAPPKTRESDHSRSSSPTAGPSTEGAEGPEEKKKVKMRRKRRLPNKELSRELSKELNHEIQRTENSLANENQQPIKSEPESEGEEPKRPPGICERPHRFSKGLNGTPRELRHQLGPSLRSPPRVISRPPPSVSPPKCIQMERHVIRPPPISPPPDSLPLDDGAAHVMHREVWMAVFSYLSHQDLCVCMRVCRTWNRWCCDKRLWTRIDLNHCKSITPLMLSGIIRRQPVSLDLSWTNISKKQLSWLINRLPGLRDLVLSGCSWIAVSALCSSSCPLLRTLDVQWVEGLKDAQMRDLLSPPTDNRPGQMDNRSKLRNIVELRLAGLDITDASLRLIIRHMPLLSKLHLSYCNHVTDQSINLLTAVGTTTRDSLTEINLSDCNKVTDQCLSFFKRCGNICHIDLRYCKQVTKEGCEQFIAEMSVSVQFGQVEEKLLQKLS

[11] = species on record: Homo sapiens; test: Selectivity ratio of IC50 for full length human KDM4C to IC50 for full length human KDM5A
[12] = species on record: Homo sapiens; test: Selectivity ratio of IC50 for full length human KDM2B to IC50 for full length human KDM5A
[13] = biological target: T1, Lysine-specific demethylase 5A; test: Ratio of IC50 for full length human KDM5A using biotinylated H2NART(KMe3)QTARKSTGGKAPRKQLA-NTPEG-biotin as substrate and 10 uM of 2-OG as co-substrate to IC50 for full length human KDM5A using biotinylated H2NART(KMe3)QTARKSTGGKAPRKQLA-NTPEG-biotin as substrate and 1 uM of 2-OG as co-substrate
[14] = Competitive inhibition of KDM5 (unknown origin) in presence of 2-OG; parameters: species or system Homo sapiens
[15] = biological target: T1, Lysine-specific demethylase 5A; test: Inhibition of full length human KDM5A using biotinylated H2NART(KMe3)QTARKSTGGKAPRKQLA-NTPEG-biotin as substrate after 30 to 40 mins using 20 uM of 2-OG as co-substrate by TR-FRET assay

SMILES: CC(C)NC(=O)c1c(O)c2ccncc2[nH]c1=O
- IC50 [1]: 400 nM

- pKa [2]: 6.4
- inhibition [3]: inactive
- Papp A→B [4]: 15.8 ×10⁻⁶ cm/s
- fraction unbound [5]: 0.3
- CLhep predicted [6]: 11.5 mL/min/kg
SMILES: CCNC(=O)c1c(O)c2ccncc2[nH]c1=O
- IC50 [1]: 50 nM

SMILES: CCOC(=O)c1c(O)nc2ccccc2c1O
- IC50 [1]: > 25000 nM

- pKa [2]: 3.5
- IC50 [9]: > 25000 nM
- IC50 [10]: > 25000 nM
- inhibition [3]: inactive
SMILES: N#Cc1c(O)c2ccncc2[nH]c1=O
- IC50 [1]: 25 nM
- IC50 [7]: 70 nM
- IC50 [8]: 170 nM

SMILES: O=C(NCc1ccccc1)c1c(O)c2ccncc2[nH]c1=O
- IC50 [1]: > 25000 nM

SMILES: N#Cc1c(O)c2ccccc2[nH]c1=O
- IC50 [1]: > 25000 nM

SMILES: O=c1cc(O)c2ccncc2[nH]1
- IC50 [1]: 6700 nM

SMILES: O=C(c1c(O)c2ccncc2[nH]c1=O)N1CCCC1
- IC50 [1]: > 25000 nM

- pKa [2]: 4.6
- IC50 [9]: 1900 nM
- IC50 [10]: > 25000 nM
- Ratio IC50 [11]: 12
- Ratio IC50 [12]: > 150
SMILES: O=c1[nH]c(C(F)(F)F)nc2cnccc12
- IC50 [1]: 160 nM
- Ratio IC50 [13]: 9

SMILES: CCN(C)C(=O)c1c(O)c2ccncc2[nH]c1=O
- IC50 [1]: 700 nM

SMILES: CN(C)C(=O)c1c(O)c2ccncc2[nH]c1=O
- IC50 [1]: 5300 nM

- IC50 [14]: 10 nM
SMILES: CC(C)c1c(-c2ccccc2)[nH]c2c(C#N)cnn2c1=O

SMILES: CCc1c(O)c2ccncc2[nH]c1=O
- IC50 [1]: 230 nM
- IC50 [15]: 2100 nM

SMILES: CCc1c(O)c2ccncc2n(CC)c1=O
- IC50 [1]: 3800 nM

SMILES: CNC(=O)c1c(O)c2ccncc2[nH]c1=O
- IC50 [1]: 70 nM

SMILES: CCOC(=O)c1c(O)c2cccnc2[nH]c1=O
- IC50 [1]: > 25000 nM
